For test [1], the system named is E. coli W3110hns-205::Tn10. The format is cell-based. Conditions: 3 mM, L-broth containing tetracycline, 37° C.; for Growth inhibition: semi-quantitative estimate. On the procedure:
A single E. coli colony (W3110 hns-205::Tn10) was picked from an L-agar plate containing tetracycline (10 μg ml^−1) and inoculated into 10 ml L-broth. This was grown overnight in a shaking incubator at 37° C. 200 μl of overnight culture was inoculated into 20 ml L-broth in a 50 ml conical flask, and grown at 37° C. in a shaking water bath to an optical density at 600 nm (OD600) of between 0.2 and 0.3. Two ml of this culture was inoculated into 18 ml pre-warmed L-broth containing tetracycline (10 μg ml^−1) to which had been added an appropriate volume of indole, isoquinoline, indoline, tryptamine, quinoline, or pyrrole stock solution (0.5 M in ethanol), IAA stock solution (0.5 M in water), 3-β-indoleacrylic acid stock solution (0.125 M in ethanol) or 1-acetylindoline stock solution (0.25 M in ethanol) to give a final concentration of 3 mM.

Test [2] has as its system E. coli BW25113. Put plainly: Growth inhibition of E. coli BW25113 by indole in L-broth (FIG. 1). Particulars: 37° C. The format is cell-based. As to the method: For the experimentation for which results are shown in FIG. 1, E. coli BW25113 (Datsenko & Wanner, 2000)was grown overnight at 37° C. in L-broth (Kennedy, 1971). The stationary phase culture was used to inoculate a series of L-broth cultures supplemented with indole (0-6 mM) and their growth was monitored over the next 7 hours.

In test [3] the test system is E. coli W3110. Put plainly: Growth of W3110 in tryptone water broth supplemented with indole (FIG. 2a). Conditions: 37° C. The format is cell-based. As to the method:
(§1) For the experimentation for which results are shown in FIG. 2a and FIG. 2b, W3110 and W3110hns-205 (Mukherjee et al., 2004) were cultured at 37° C. in tryptone water broth (Oxoid) supplemented with 0, 2 or 4 mM indole.

Test [4] has as its system W3110 hns205. Description: Indole-induced quiescence of W3110 hns205 in broth culture (FIG. 2a, 2b, 3). The class given is cell-based, E. coli. As to the method: as §1
For the experimentation for which results are shown in FIG. 3a and FIG. 3b, W3110hns205 was cultured in L-broth at 30° C. (FIG. 3a) or 42° C. (FIG. 3b). At t=0 each culture was split into two and indole (final concentration 2 mM) was added to one part. […] The control cultures (no indole) continued to grow until they reached stationary phase.

In test [5] the test system is W3110hns205 containing plasmid pCMT2bompAhGM-CSF. Put plainly: hGM-CSF expression in indole-treated cultures, ELISA of total cell lysates (FIG. 4). The class given is cell-based, E. coli. Particulars: for hGM-CSF production: 42° C., L-broth. As to the method: For the experimentation for which results are shown in FIG. 4, W3110hns205 containing plasmid pCMT2bompAhGM-CSF^(see below) (which contains the coding sequence for the cytokine hGM-CSF fused to an ompA leader sequence, transcribed from promoter lambda PL under the control of the temperature sensitive repressor cI857) was grown in L-broth at 30° C. to an OD600 of 0.36, at which point the culture was transferred to 42° C. to induce cytokine expression. Simultaneously indole was added to the growth medium at final concentrations of 0, 2 or 4 mM (FIG. 4a).
Cytokine production was quantified by ELISA of total cell lysates and assay data were normalised for culture density (FIG. 4b). […] In the control culture (no indole), hGM-CSF increased in the first hour before declining.
A general note: ELISA stands for enzyme-linked immunosorbent assay.

For test [6], the system named is W3110hns-205 containing pCMT2blacZ. Put plainly: Growth and beta-galactosidase (LacZ) expression in indole-treated culture (FIG. 5). The format is cell-based, E. coli. Conditions: 2 mM indole, 42° C. On the procedure:
For the experimentation for which results are shown in FIGS. 5a and 5b, W3110hns-205 containing pCMT2blacZ (a plasmid which contains the coding sequence for beta-galactosidase, transcribed from promoter lambda PL under the control of the temperature sensitive repressor cI857) was grown in L-broth at 30° C. to OD600=0.15. The culture was then divided into two and the temperature was increased to 42° C. to induce lacZ expression. Indole (2 mM) was added immediately to one subculture to induce a quiescent state, while the other was an indole-free control. Beta-galactosidase activities were measured for 24 hours after the temperature shift.

The test system of test [7] is W3110 rnc-14. Put plainly: Indole-induced quiescence in an rnc mutant (FIG. 6). The format is cell-based, E. coli. Particulars: 2 mM indole. As to the method:
For the experimentation for which results are shown in FIG. 6, a culture of W3110 rnc-14 was grown in L-broth at 37° C. to a density of OD600=0.15. The culture was divided into two (t=0) and indole (2 mM) was added to one of the sub-cultures. Growth of the cultures was measured over the following 27 hours. While the control culture eventually reached stationary phase at OD600=2, the indole-treated culture entered a non-growing state after approximately 7 hours and remained at a density of OD600=1 (approx.).

The subject of test [8] is W3110hns-205 pcIts857. Description: Comparison of indole- and Rcd-induced quiescence (FIG. 7). The format is cell-based, E. coli. Conditions: 42° C., L-broth. On the procedure:
The experiment for which results are shown in FIG. 7 compared the growth kinetics of Rcd-induced and indole-induced quiescent cultures. Cultures of W3110hns-205 pcIts^857 (Remaut et al., 1983) transformed with either pRcd1 (Rcd expression plasmid; Mukherjee et al., 2004)) or pUCdeltalacZ (control plasmid; no Rcd) were grown in L-broth at 30° C. for 90 minutes, then 2×5 ml aliquots of each culture were transferred to 50 ml conical flasks, pre-warmed to 42° C. (t=0). The temperature shift induces Rcd expression in cultures containing plasmid pRcdl but not in cultures containing pUCdeltalacZ. For each pair of cultures, indole (final concentration 2 mM) was added to one of them. IPTG was added to all cultures so that the induction of chromosomal LacZ could be monitored. Culture density was monitored over the following 24 h.

Test [9] concerns E. coli W3110hns-205::Tn10. The format is cell-based. Particulars: L-broth containing tetracycline.
Test [10] has as its system E. coli gene mdtE. Conditions: 2 mM indole; cited from earlier work.

“Also recorded” adds a separate entry of the source. Where two headings read alike, the source gives them in different places.

As to `CC(=O)N1CCc2ccccc21` [1-acetylindoline], the “effect on growth (in words)” value in test [1] is recorded as “substantial growth inhibition, but less severe than that shown by indole; also recorded: significant inhibitory effects”.

For the compound `O=C(O)/C=C/c1c[nH]c2ccccc12` [3-β-indoleacrylic acid], in [1], the “effect on growth (in words)” value is “very similar effects to indole; also recorded: significant inhibitory effects” and the Growth inhibition result is given as “+++”.

Consider `O=C(O)Cc1c[nH]c2ccccc12` [IAA, indole-3-acetic acid], for which the “effect on growth (in words)” value in [1] is recorded as “slight stimulation of growth”; in test [1] (listed as indole acetic acid), “not observed to have a significant effect on growth”. In addition, the Growth inhibition result in test [1] is given as “−^b”.

Turning to `c1ccc2[nH]ccc2c1` [indole], the effect on growth result in [2] (1 mM indole) is recorded as “growth inhibition was not evident; also recorded: no effect upon growth”; in test [2] (2 or 3 mM indole), “partial inhibition; also recorded: slowing of the growth rate”; in test [2] (4, 5 or 6 mM indole) it was “Growth inhibition was severe; also recorded: almost complete inhibition of growth”; in [3] (2 mM indole), “partial growth inhibition; also recorded: reduced growth rate”; in test [3] (4 mM indole) it was “inhibited growth severely; also recorded: completely inhibited growth”; in test [4] (2 mM indole, L-broth) it was “enter a quiescent state”. The effect on growth result in test [4] (4 mM indole, L-broth) was “complete growth inhibition”; in test [4] (4 mM indole, tryptone water broth, 37° C.) it was “almost complete inhibition of growth”. The induction of quiescence entry was “induce quiescence; also recorded: entered the quiescent state with similar kinetics at both temperatures” in test [4] (2 mM indole, L-broth, 30° C. or 42° C.); “induce quiescence; also recorded: enters quiescence” in [7]; “entered a quiescent state but more rapidly and reached a lower final density” in test [8] (2 mM indole plus Rcd expression (pRcd1)); “enter a quiescent state with similar growth kinetics; also recorded: entered a quiescent state” in test [8] (2 mM indole, no Rcd). For the same compound, in test [4] (2 mM indole, at 30° C., 37° C. and 42° C.), the “persistence of the quiescent state” value is “at least 24 hours”. The “appropriate final concentration of indole to induce quiescence” value in test [4] (shake-flask culture) was 2 mM. Further, the hGM-CSF production result in test [5] (2 mM indole, quiescent culture) is reported as “increased rapidly for the first hour”; in [5] (4 mM indole), “produced no hGM-CSF”. For the same compound, the “peak hGM-CSF concentration of control culture (no indole) relative to quiescent culture” value in test [5] (2 mM indole, normalised for culture density) is on record as “less than half”. The “final OD600” value in test [6] (L-broth) was 0.78. In test [6] (after 24 h), the beta-galactosidase activity was 27,000 MU. Moreover, the “culture density OD600 in non-growing state” value in test [7] (L-broth, 37° C.) is on record as ~1. In addition, the “time to enter a non-growing state” value in test [7] (L-broth, 37° C.) is given as “approximately 7 hours”. Further, the Growth inhibition entry in test [1] is given as “+++”. In test [9], the “minimum concentration which causes immediate growth inhibition” value was 3 mM. In addition, in test [10], the elevation of expression is reported as 22 fold.

Turning to `c1ccc2c(c1)CCN2` [indoline], the “effect on growth (in words)” value in test [1] is given as “some inhibition of growth but their effect was less severe than indole”; in test [1] (listed as Indoline) it was “slight growth inhibition”.

On to `c1ccc2cnccc2c1` [isoquinoline], for which, in test [1], the “effect on growth (in words)” value is “very similar effects to indole; also recorded: significant inhibitory effects” and the Growth inhibition result is “+++”. The “effect on growth (in words)” value in [1] (listed as Isoquinoline) is on record as “very similar effects to indole”.

For `c1ccc2ncccc2c1` [quinoline], the “effect on growth (in words)” value is on record as “significant inhibitory effects” in [1] and “some inhibition of growth but their effect was less severe than indole; also recorded: substantial growth inhibition, but less severe than that shown by indole” in [1] (listed as Quinoline).

Regarding `NCCc1c[nH]c2ccccc12` [tryptamine], the “effect on growth (in words)” value in test [1] is “some inhibition of growth but their effect was less severe than indole; also recorded: slight growth inhibition”.

As for pyrrole, in test [1], the “effect on growth (in words)” value is reported as “no observed inhibitory effect” and the Growth inhibition entry is “−”. Further, the “effect on growth (in words)” value in test [1] (listed as Pyrrole) was “not observed to have a significant effect on growth”.

(Values after patent publication US7790435B2, “Chemical induction in quiescence in bacteria” (priority 2005, dated 2010).)
